# Results published in ChEMBL document CHEMBL6114942, “(E)-3-(3-([1,1'-Biphenyl]-4-yl)-1-phenyl-1H-pyrazol-4-yl)-1-phenylprop-2-en-1-ones inducing reactive oxygen species generation through glutathione depletion” (Bioorg Med Chem Lett, 2025).
# Active and inactive are the calls of the source. The calls are words filed in the database; no cut-off is given here.
# Experiments:
# MIA PaCa-2 [1] = assay: Induction of GSH depletion in human MIA PaCa-2 assessed as cell population with low GSH level at 50 uM measured after 18 hrs by VB-48/propidium iodide staining based flow cytometry (reference value: 5%); assay type: functional
# MIA PaCa-2 [2] = assay: Induction of apoptosis in human MIA PaCa-2 cells assessed as necrotic cells at 50 uM measured after 48 hrs by Annexin-V-FITC/propidium iodide staining based flow cytometry (reference value: 11%); assay type: functional
# MIA PaCa-2 [3] = assay: Induction of apoptosis in human MIA PaCa-2 cells assessed as early apoptotic cells at 50 uM measured after 48 hrs by Annexin-V-FITC/propidium iodide staining based flow cytometry (reference value: 15%); assay type: functional
# MIA PaCa-2 [4] = assay: Induction of apoptosis in human MIA PaCa-2 cells assessed as viable cells at 100 uM measured after 24 hrs by Annexin-V-FITC/propidium iodide staining based flow cytometry (reference value: 74%); assay type: functional; settings: read-out: Activity
# MIA PaCa-2 [5] = assay: Induction of GSH depletion in human MIA PaCa-2 assessed as cell population with high GSH level at 50 uM measured after 18 hrs by VB-48/propidium iodide staining based flow cytometry (reference value: 95%); assay type: functional
# MIA PaCa-2 [6] = assay: Inhibition of GST activity in human MIA PaCa-2 cells at 50 uM using CDNB as substrate measured after 6 hrs by spectrophotometric method; assay type: cell-based
# MIA PaCa-2 [7] = assay: Induction of apoptosis in human MIA PaCa-2 cells assessed as necrotic cells at 100 uM measured after 48 hrs by Annexin-V-FITC/propidium iodide staining based flow cytometry (reference value: 11%); assay type: functional
# MIA PaCa-2 [8] = assay: Induction of apoptosis in human MIA PaCa-2 cells assessed as late apoptotic cells at 100 uM measured after 48 hrs by Annexin-V-FITC/propidium iodide staining based flow cytometry (reference value: 3%); assay type: functional
# MIA PaCa-2 [9] = assay: Induction of apoptosis in human MIA PaCa-2 cells assessed as early apoptotic cells at 100 uM measured after 48 hrs by Annexin-V-FITC/propidium iodide staining based flow cytometry (reference value: 15%); assay type: functional
# MIA PaCa-2 [10] = assay: Induction of apoptosis in human MIA PaCa-2 cells assessed as late apoptotic cells at 50 uM measured after 48 hrs by Annexin-V-FITC/propidium iodide staining based flow cytometry (reference value: 3%); assay type: functional
# MIA PaCa-2 [11] = assay: Induction of apoptosis in human MIA PaCa-2 cells assessed as late apoptotic cells at 50 uM measured after 24 hrs by Annexin-V-FITC/propidium iodide staining based flow cytometry (reference value: 4%); assay type: functional
# MIA PaCa-2 [12] = assay: Induction of apoptosis in human MIA PaCa-2 cells assessed as early apoptotic cells at 100 uM measured after 24 hrs by Annexin-V-FITC/propidium iodide staining based flow cytometry (reference value: 13%); assay type: functional
# [13] = Induction of GSH depletion in human Primary pancreatic epithelial cells assessed as cell population with low GSH level at 50 uM measured after 18 hrs by VB-48/propidium iodide staining based flow cytometry (reference value: 7%); assay type: toxicity
# MIA PaCa-2 [14] = assay: Induction of reactive oxygen species generation in human MIA PaCa-2 cells at 50 uM measured after 12 hrs by DCF-DA staining based phase-contrast fluorescence microscopy; assay type: functional, cell-based
# MIA PaCa-2 [15] = assay: Induction of apoptosis in human MIA PaCa-2 cells assessed as necrotic cells at 50 uM measured after 24 hrs by Annexin-V-FITC/propidium iodide staining based flow cytometry (reference value: 9%); assay type: functional
# MIA PaCa-2 [16] = assay: Induction of reactive oxygen species generation in human MIA PaCa-2 cells assessed as ROS level at 50 uM measured after 12 hrs by DCF-DA staining based flow cytometry (reference value: 461.5 +/- 57.3); assay type: functional
# MIA PaCa-2 [17] = assay: Induction of apoptosis in human MIA PaCa-2 cells assessed as necrotic cells at 100 uM measured after 24 hrs by Annexin-V-FITC/propidium iodide staining based flow cytometry (reference value: 9%); assay type: functional
# MIA PaCa-2 [18] = assay: Induction of apoptosis in human MIA PaCa-2 cells assessed as viable cells at 50 uM measured after 24 hrs by Annexin-V-FITC/propidium iodide staining based flow cytometry (reference value: 74%); assay type: functional; settings: read-out: Activity
# MIA PaCa-2 [19] = assay: Induction of apoptosis in human MIA PaCa-2 cells assessed as viable cells at 50 uM measured after 48 hrs by Annexin-V-FITC/propidium iodide staining based flow cytometry (reference value: 71%); assay type: functional; settings: read-out: Activity
# MIA PaCa-2 [20] = assay: Induction of apoptosis in human MIA PaCa-2 cells assessed as early apoptotic cells at 50 uM measured after 24 hrs by Annexin-V-FITC/propidium iodide staining based flow cytometry (reference value: 13%); assay type: functional
# MIA PaCa-2 [21] = assay: Induction of apoptosis in human MIA PaCa-2 cells assessed as viable cells at 100 uM measured after 48 hrs by Annexin-V-FITC/propidium iodide staining based flow cytometry (reference value: 71%); assay type: functional; settings: read-out: Activity
# MIA PaCa-2 [22] = assay: Induction of apoptosis in human MIA PaCa-2 cells measured after 24 to 48 hrs by Annexin-V-FITC/propidium iodide staining based flow cytometry; assay type: functional, cell-based; settings: dose 50-100 µM, time 24-48 hrs
# MIA PaCa-2 [23] = assay: Induction of apoptosis in human MIA PaCa-2 cells assessed as late apoptotic cells at 100 uM measured after 24 hrs by Annexin-V-FITC/propidium iodide staining based flow cytometry (reference value: 4%); assay type: functional
# [24] = Induction of GSH depletion in human Primary pancreatic epithelial cells assessed as cell population with high GSH level at 50 uM measured after 18 hrs by VB-48/propidium iodide staining based flow cytometry (reference value: 93%); assay type: toxicity
smiles,measurement,setting,value
COc1ccc(C(=O)/C=C/c2cn(-c3ccc(OC)cc3)nc2-c2ccc(-c3ccccc3)cc2)cc1,Activity,MIA PaCa-2 [1],44%
same,Activity,MIA PaCa-2 [2],5%
same,Activity,MIA PaCa-2 [3],65%
same,viability at 100 µM,MIA PaCa-2 [4],30%
same,Activity,MIA PaCa-2 [5],55%
same,inhibition,MIA PaCa-2 [6],Active
same,Activity,MIA PaCa-2 [7],4%
same,Activity,MIA PaCa-2 [8],11%
same,Activity,MIA PaCa-2 [9],74%
same,Activity,MIA PaCa-2 [10],8%
same,Activity,MIA PaCa-2 [11],7%
same,Activity,MIA PaCa-2 [12],60%
same,Activity,[13],14%
same,Activity,MIA PaCa-2 [14],Active; Most Effective Among The Tested Compounds
same,Activity,MIA PaCa-2 [15],6%
same,Activity,MIA PaCa-2 [16],799.5
same,Activity,MIA PaCa-2 [17],3%
same,viability at 50 µM,MIA PaCa-2 [18],49%
same,viability at 50 µM,MIA PaCa-2 [19],22%
same,Activity,MIA PaCa-2 [20],39%
same,viability at 100 µM,MIA PaCa-2 [21],11%
same,Activity,MIA PaCa-2 [22],Dose-dependent-effect
same,Activity,MIA PaCa-2 [23],6%
same,Activity,[24],86%
O=C(/C=C/c1cn(-c2ccccc2)nc1-c1ccc(-c2ccccc2)cc1)c1cc(Cl)ccc1O,Activity,MIA PaCa-2 [16],661
COc1cccc(C(=O)/C=C/c2cn(-c3ccc(F)cc3)nc2-c2ccc(-c3ccccc3)cc2)c1,Activity,MIA PaCa-2 [16],675
O=C(/C=C/c1cn(-c2ccccc2)nc1-c1ccc(-c2ccccc2)cc1)c1cc(F)ccc1O,Activity,MIA PaCa-2 [16],540
COc1ccc(C(=O)/C=C/c2cn(-c3ccc(F)cc3)nc2-c2ccc(-c3ccccc3)cc2)cc1OC,Activity,MIA PaCa-2 [16],534.5
COc1ccc(C(=O)/C=C/c2cn(-c3ccc(F)cc3)nc2-c2ccc(-c3ccccc3)cc2)cc1,Activity,MIA PaCa-2 [16],529.5
COc1cccc(C(=O)/C=C/c2cn(-c3ccccc3)nc2-c2ccc(-c3ccccc3)cc2)c1,Activity,MIA PaCa-2 [16],680
COc1ccccc1C(=O)/C=C/c1cn(-c2ccccc2)nc1-c1ccc(-c2ccccc2)cc1,Activity,MIA PaCa-2 [16],619.5
COc1ccc(-n2cc(/C=C/C(=O)c3cccc(OC)c3)c(-c3ccc(-c4ccccc4)cc3)n2)cc1,Activity,MIA PaCa-2 [16],720.5
O=C(/C=C/c1cn(-c2ccccc2)nc1-c1ccc(-c2ccccc2)cc1)c1ccc(O)cc1,Activity,MIA PaCa-2 [16],639
COc1ccc(-n2cc(/C=C/C(=O)c3ccccc3OC)c(-c3ccc(-c4ccccc4)cc3)n2)cc1,Activity,MIA PaCa-2 [16],535.5
CC1=CC(=O)c2ccccc2C1=O [MENADIONE],Activity,MIA PaCa-2 [16],1160.5
COc1cccc(O)c1C(=O)/C=C/c1cn(-c2ccccc2)nc1-c1ccc(-c2ccccc2)cc1,Activity,MIA PaCa-2 [16],580.5
